One data set concerns ZR-75-1 cells. Briefly: Effect on ZR-75-1 cell proliferation (11 days, DNA content). It counts as cell-based, human. The conditions noted are these: 1 mM. The method, then:
For growth studies, ZR-75-1 cells were cultured in MEZR medium or in phenol red-free RPMI 1640 supplemented with 2 mM L-glutamine, 1 mM sodium pyruvate, 15 mM Hepes, antibiotics, 1 nM 17β-estradiol, 0.5 μg of bovine insulin per ml and 5% (v/v) charcoal-treated fetal bovine serum (SD medium), as indicated in the text. When polyamines or polyamine analogs were added to serum-containing media, 1 mM aminoguanidine was added to inhibit bovine serum amine oxidase (BSAO) activity (Morgan, D. M. L. 1989, in The Physiology of Polyamines (Bachrach, U., and Heimer, Y. M. eds) Vol. I, pp. 203-229, CRC Press, Boca Raton). The effect of the transport inhibitors on cell growth was measured by incubating ZR-75-1 cells for 11 days in medium supplemented with antagonist, polyamines and/or 1 mM DFMO as indicated, followed by colorimetric determination of DNA content with 3,4-diaminobenzoic acid (Simard, J., Dauvois, S., Haagensen, D. E., Lėvesque C., Mėrand, Y. and Labriė, F. 1990. Endocrinology 126: 3223-3231). Medium was changed every other day in these experiments because of the slow reaction of the compound with an unknown component present in the IMEM and RPMI 1640 medium formulation.
The biocompatibility of DESC, MESC, and DEASC was thus evaluated during a long-term (11-day) incubation with ZR-75-1 cells grown in RPMI 1640 containing 10% (v/v) FBS in the absence and presence of 1 mM aminoguanidine. […] Weak growth inhibition caused by the mixed MESC-cysteamine disulfide, however, apparently involved degradation by a copper amine oxidase.

A further data set relates to polyamine transporter. Briefly: Inhibition of [3H]spermidine uptake in CHO-K1 cells. It counts as cell-based, Chinese hamster. The conditions noted are these: MESC thioether derivatives. As for the experimental part: To 1 ml of an extemporaneously prepared, DTT-free solution of MESC (20 mM in […]) were added 50 μl of 50 mM Tris-HCl (pH 7.0) and 105 μl of a 40 mM solution of either iodoacetamide, LY iodoacetamide or ASIB in a light-protected microcentrifuge tube, and the mixture was incubated for 2 hours at 37° C. […] Excess iodoacetamide was then inactivated by adding DTT to a final concentration of 40 mM and incubating the solution for 2 hours at 37° C. […] The effect of the respective DTT-inactivated iodoacetamide on spermidine transport was determined in parallel by incubating cells with the same reaction mixture from which MESC was omitted. […] J. Biol. […] Cells were then lysed with 200-μl aliquot of 1 N NaOH and incubated for 30 minutes at 60° C. After neutralization with 200 μl of 1 N HCl, radioactivity was determined from a 250-μl of the cell lysate by scintillation counting. Uptake activity was expressed per amount of total cellular protein as determined by the method of Bradford (Bradford, M. M. 1976. Anal. Biochem. 72: 248-254). […] K[…] Ki and Vmax values were then estimated by Lineweaver-Burke analysis. For competitive inhibitors, Ki values were also estimated by measuring uptake activity in the presence of logarithmically increasing concentrations of antagonist, and using the Cheng-Prusoff equation (Cheng, Y.-C. and Prusoff, W. H. 1973. Biochem. Pharmacol. 22: 3099-3108) by iterative curve fitting for a sigmoidal curve. For mixed competitive/noncompetitive inhibition, two methods were used to calculate kinetic constants. […] C. 1976. Enzymes, 3rd Ed., Academic Press, San Diego, Calif.). […] C. 1976. Enzymes, 3rd Ed., Academic Press, San Diego, Calif.). Intracellular Accumulation

As to `N=C(N)NN` [aminoguanidine, reference compound], the “Effect of aminoguanidine alone on cell growth” value in the data set with ZR-75-1 cells is “slight inhibitory effect”.

Consider `[N-]=[N+]=Nc1ccc(C(=O)NCCCCNC(=O)CSCCNC(=O)C(CCCNCCCN)NCCCN)c(O)c1` (stereo not shown) [MESC-ASIB], for which the “Ki toward spermidine uptake compared with MESC” value in the data set on polyamine transporter is reported as “virtually identical to that of MESC”.

With `NCCCNCCCC(NCCCN)C(=O)NCCSCC(N)=O` (stereo not shown) [MESC-acetamide], the “Ki toward spermidine uptake compared with MESC” value with polyamine transporter is recorded as “virtually identical to that of MESC”.

Take `NCCCNCCCC(NCCCN)C(=O)NCCSCC(=O)NCCN1C(=O)c2cc(S(=O)(=O)O)cc3c(N)c(S(=O)(=O)O)cc(c23)C1=O` (stereo not shown) [MESC-LY]: the “Ki toward spermidine uptake compared with MESC” value in the data set on polyamine transporter is “virtually identical to that of MESC”.

These data come from patent US6949679B1, “Polyamine transport inhibitors” (Universite Laval, priority 1998, dated 2005).
